Source: patent publication US9409924B2, “Selective glycosidase inhibitors and uses thereof” (Alectos Therapeutics Inc., priority 2011, dated 2016)
pEC50, pKi: −log10 of the molar value.

Columns and labels:
[1] = Assay for determination of apparent permeability (Papp), bi-directional transport; format: in vitro ADME; conditions: pig, LLC-PK1; 1 μM test compound, t=3 h, average of A to B and B to A; read-out: Papp LLC-PK1 cells
Experimental: Assay for Determination of Apparent Permeability (Papp)
Bi-directional transport was evaluated in LLC-PK1 cells in order to determine apparent permeability (Papp). LLC-PK1 cells can form a tight monolayer and therefore can be used to assess vectorial transport of compounds from basolateral to apical (B→A) and from apical to basolateral (A→B).
To determine Papp, LLC-PK1 cells were cultured in 96-well transwell culture plates (Millipore). Solutions containing the test compounds (1 μM) were prepared in Hank's Balanced Salt Solution with 10 mM HEPES. Substrate solution (150 μL) was added to either the apical (A) or the basolateral (B) compartment of the culture plate, and buffer (150 μL) was added to the compartment opposite to that containing the compound. At t=3 h, 50 μL samples were removed from both sides of monolayers dosed with test compound and placed in 96 well plates, scintillant (200 μL) or internal standard (100 μL labetolol 1 μM) was added to the samples and concentration was determined by liquid scintillation counting in a MicroBeta Wallac Trilux scintillation counter (Perkin Elmer Life Sciences, Boston, Mass.) or by LCMS/MS (Applied Biosystems SCIEX API 5000 triple quadruple mass spectrometer). [^3H]Verapamil (1 μM) was used as the positive control. The experiment was performed in triplicate.
[formula] Where: Volume of Receptor Chamber was 0.15 mL; Area of membrane was 0.11 cm^2; the Initial Concentration is the sum of the concentration measured in the donor plus concentration measured in receiver compartments at t=3 h; A in Concentration is concentration in the receiver compartment at 3 h; and Δ in Time is the incubation time (3×60×60=10800 s). Papp was expressed as 10^−6 cm/s.

human O-GlcNAcase = human O-GlcNAcase (Homo sapiens (Human), UniProt O60502); assay: Assay for determination of KI values for inhibition of O-GlcNAcase activity (fluorescence-based hOGA); format: biochemical; conditions: purified human O-GlcNAcase, 4-Methylumbelliferyl N-acetyl-β-D-glucosaminide substrate, pH 7.0, Cheng-Prusoff
Experimental: Assay for Determination of KI Values for Inhibition of O-GlcNAcase Activity
Experimental Procedure for Kinetic Analyses:
Enzymatic reactions were carried out in a reaction containing 50 mM NaH2PO4, 100 mM NaCl and 0.1% BSA (pH 7.0) using 2 mM 4-Methylumbelliferyl N-acetyl-β-D-glucosaminide dihydrate (Sigma M2133) dissolved in ddH2O, as a substrate. The amount of purified human O-GlcNAcase enzyme used in the reaction was 0.7 nM. Test compound of varying concentrations was added to the enzyme prior to initiation of the reaction. The reaction was performed at room temperature in a 96-well plate and was initiated with the addition of substrate. […] The slope of product production was determined for each concentration of compound tested and plotted, using standard curve fitting algorithms for sigmoidal dose response curves. The values for a four parameter logistic curve fit of the data were determined.

O-GlcNAcase = O-GlcNAcase (Rattus norvegicus (Rat), UniProt Q8VIJ5); assay: Cell-based ELISA of O-GlcNAcylated protein (RL-2 antibody) for cellular activity of O-GlcNAcase inhibitors; conditions: rat PC-12 cells, 24 h treatment, O-GlcNAcylated protein detected with RL-2 antibody
Description: Assay for Determination of Cellular Activity for Compounds that Inhibit O-GlcNAcase Activity
Inhibition of O-GlcNAcase, which removes O-GlcNAc from cellular proteins, results in an increase in the level of O-GlcNAcylated protein in cells. An increase in O-GlcNAcylated protein can be measured by an antibody, such as RL-2, that binds to O-GlcNAcylated protein. The amount of O-GlcNAcylated protein:RL2 antibody interaction can be measured by enzyme linked immunosorbant assay (ELISA) procedures.
A variety of tissue culture cell lines, expressing endogenous levels of O-GlcNAcase, can be utilized; examples include rat PC-12, and human U-87, or SK—N—SH cells. […] Compounds to be tested were dissolved in DMSO, either 2 or 10 mM stock solution, and then diluted with DMSO and water in a two-step process using a Tecan workstation. […] To prepare a cell lysate, the media from compound treated cells was removed, the cells were washed once with phosphate buffered saline (PBS) and then lysed for 5 minutes at room temperature in 50 μL of Phosphosafe reagent (Novagen Inc, Madison, Wis.) with protease inhibitors and PMSF. The cell lysate was collected and transferred to a new plate, which was then either coated to assay plates directly or frozen −80° C. until used in the ELISA procedure. If desired, the total protein concentration of samples was determined using 20 μL of the sample using the BCA method.
The ELISA portion of the assay was performed in a black Maxisorp 96-well plate that was coated overnight at 4° C. with 100 μL/well of the cell lysate (1:10 dilution of the lysate with PBS containing protease inhibitors, phosphatase inhibitors, and PMSF). […]
The amount of O-GlcNAcylated protein, as detected by the ELISA assay, was plotted for each concentration of test compound using standard curve fitting algorithms for sigmoidal dose response curves. The values for a four parameter logistic curve fit of the data were determined, with the inflection point of the curve being the potency value for the test compound.

Chain of O-GlcNAcase (Q8VIJ5 whole entry): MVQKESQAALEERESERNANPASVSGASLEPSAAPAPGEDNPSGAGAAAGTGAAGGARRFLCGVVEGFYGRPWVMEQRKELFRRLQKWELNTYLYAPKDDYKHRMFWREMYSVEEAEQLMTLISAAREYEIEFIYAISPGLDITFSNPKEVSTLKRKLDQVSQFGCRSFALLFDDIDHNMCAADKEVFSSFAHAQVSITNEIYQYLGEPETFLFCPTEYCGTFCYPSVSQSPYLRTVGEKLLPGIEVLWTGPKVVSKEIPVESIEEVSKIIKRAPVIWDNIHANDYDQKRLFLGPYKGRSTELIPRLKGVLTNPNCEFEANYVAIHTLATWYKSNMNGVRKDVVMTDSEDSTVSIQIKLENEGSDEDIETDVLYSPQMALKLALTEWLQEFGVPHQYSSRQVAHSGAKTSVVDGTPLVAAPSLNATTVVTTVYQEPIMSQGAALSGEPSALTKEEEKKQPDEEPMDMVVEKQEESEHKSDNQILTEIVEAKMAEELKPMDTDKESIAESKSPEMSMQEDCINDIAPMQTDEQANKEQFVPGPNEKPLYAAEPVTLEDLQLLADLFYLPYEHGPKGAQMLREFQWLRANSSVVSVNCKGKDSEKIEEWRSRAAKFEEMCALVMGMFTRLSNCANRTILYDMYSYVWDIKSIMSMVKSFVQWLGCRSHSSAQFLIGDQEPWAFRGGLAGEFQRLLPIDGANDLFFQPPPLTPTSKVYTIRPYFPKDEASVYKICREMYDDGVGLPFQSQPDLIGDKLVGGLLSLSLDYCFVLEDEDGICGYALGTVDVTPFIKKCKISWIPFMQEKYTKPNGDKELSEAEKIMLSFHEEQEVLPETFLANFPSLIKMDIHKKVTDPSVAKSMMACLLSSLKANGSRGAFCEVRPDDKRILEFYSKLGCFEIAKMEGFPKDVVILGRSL
Chain of human O-GlcNAcase (O60502 whole entry): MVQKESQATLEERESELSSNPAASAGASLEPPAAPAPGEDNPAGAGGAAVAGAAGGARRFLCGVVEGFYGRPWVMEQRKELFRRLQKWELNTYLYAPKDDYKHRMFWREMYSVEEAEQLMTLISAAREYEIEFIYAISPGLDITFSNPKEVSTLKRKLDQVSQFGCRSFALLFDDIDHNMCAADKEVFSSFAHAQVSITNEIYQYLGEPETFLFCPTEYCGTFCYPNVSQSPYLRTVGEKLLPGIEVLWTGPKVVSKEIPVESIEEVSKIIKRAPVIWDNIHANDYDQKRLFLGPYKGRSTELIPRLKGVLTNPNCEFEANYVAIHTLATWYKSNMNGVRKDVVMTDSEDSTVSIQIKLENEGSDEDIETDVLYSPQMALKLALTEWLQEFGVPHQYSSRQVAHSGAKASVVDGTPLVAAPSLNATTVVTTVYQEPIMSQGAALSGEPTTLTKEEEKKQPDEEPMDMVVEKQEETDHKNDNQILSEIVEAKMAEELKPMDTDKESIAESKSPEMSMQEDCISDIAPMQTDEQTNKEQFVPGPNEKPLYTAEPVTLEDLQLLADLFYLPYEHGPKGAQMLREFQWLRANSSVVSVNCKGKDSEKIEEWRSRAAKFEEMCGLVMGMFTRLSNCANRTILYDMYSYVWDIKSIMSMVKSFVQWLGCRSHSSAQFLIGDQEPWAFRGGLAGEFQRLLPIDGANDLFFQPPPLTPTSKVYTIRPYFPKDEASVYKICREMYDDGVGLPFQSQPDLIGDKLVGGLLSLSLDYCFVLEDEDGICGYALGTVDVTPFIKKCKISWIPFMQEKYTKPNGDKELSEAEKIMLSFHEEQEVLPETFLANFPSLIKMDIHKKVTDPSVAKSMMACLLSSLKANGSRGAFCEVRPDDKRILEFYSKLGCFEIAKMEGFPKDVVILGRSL

Compound	Papp at 3 h, 1 μM [1] [×10⁻⁶ cm/s]	pKi (human O-GlcNAcase)	pEC50 (O-GlcNAcase)
CNC1=N[C@@H]2[C@@H](F)[C@H](O)[C@@H]([C@H](C)O)O[C@@H]2S1 [Example 1, (3aR,5R,6R,7R,7aR)-7-fluoro-5-((S)-1-hydroxyethyl)-2-(methylamino)-5,6,7,7a-tetrahydro-3aH-pyrano[3,2-d]thiazol-6-ol]	3.3	–	–
CCNC1=N[C@@H]2[C@@H](F)[C@H](O)[C@@H]([C@H](C)O)O[C@@H]2S1 [Example 3, (3aR,5R,6R,7R,7aR)-2-(ethylamino)-7-fluoro-5-((S)-1-hydroxyethyl)-5,6,7,7a-tetrahydro-3aH-pyrano[3,2-d]thiazol-6-ol]	5.2	7.92	–
C[C@H](O)[C@H]1O[C@@H]2SC(N(C)C)=N[C@@H]2[C@@H](F)[C@@H]1O [Example 5, (3aR,5R,6R,7R,7aR)-2-(dimethylamino)-7-fluoro-5-((S)-1-hydroxyethyl)-5,6,7,7a-tetrahydro-3aH-pyrano[3,2-d]thiazol-6-ol]	14	7.80	–
CCNC1=N[C@@H]2[C@@H](F)[C@H](O)[C@@H]([C@@H](O)C(F)(F)F)O[C@@H]2S1 [Example 7, (3aR,5S,6R,7R,7aR)-2-(ethylamino)-7-fluoro-5-((R)-2,2,2-trifluoro-1-hydroxyethyl)-5,6,7,7a-tetrahydro-3aH-pyrano[3,2-d]thiazol-6-ol]	15	7.80	–
CNC1=N[C@@H]2[C@@H](F)[C@H](O)[C@@H]([C@@H](O)C(F)(F)F)O[C@@H]2S1 [Example 9, (3aR,5S,6R,7R,7aR)-7-fluoro-2-(methylamino)-5-((R)-2,2,2-trifluoro-1-hydroxyethyl)-5,6,7,7a-tetrahydro-3aH-pyrano[3,2-d]thiazol-6-ol]	6.6	8.46	7.13
CN(C)C1=N[C@@H]2[C@@H](F)[C@H](O)[C@@H]([C@@H](O)C(F)(F)F)O[C@@H]2S1 [Example 11, (3aR,5S,6R,7R,7aR)-2-(dimethylamino)-7-fluoro-5-((R)-2,2,2-trifluoro-1-hydroxyethyl)-5,6,7,7a-tetrahydro-3aH-pyrano[3,2-d]thiazol-6-ol]	23	8.02	–
CCNC1=N[C@@H]2C[C@H](O)[C@@H]([C@H](C)O)O[C@@H]2S1 [Example 13, (3aR,5R,6S,7aR)-2-(ethylamino)-5-((S)-1-hydroxyethyl)-5,6,7,7a-tetrahydro-3aH-pyrano[3,2-d]thiazol-6-ol]	2.3	7.59	–
CC[C@H]1O[C@@H]2SC(NC)=N[C@@H]2[C@@H](F)[C@@H]1O [Example 15, (3aR,5R,6R,7R,7aR)-5-ethyl-7-fluoro-2-(methylamino)-5,6,7,7a-tetrahydro-3aH-pyrano[3,2-d]thiazol-6-ol]	34	6.81	–

Continued, values first:

Papp at 3 h, 1 μM [1] [×10⁻⁶ cm/s]	pKi (human O-GlcNAcase)	pEC50 (O-GlcNAcase)	Compound
3.4	8.46	7.30	CNC1=N[C@@H]2C[C@H](O)[C@@H]([C@@H](O)C(F)(F)F)O[C@@H]2S1 [Example 20, (3aR,5S,6S,7aR)-2-(methylamino)-5-((R)-2,2,2-trifluoro-1-hydroxyethyl)-5,6,7,7a-tetrahydro-3aH-pyrano[3,2-d]thiazol-6-ol]
–	6.31	–	CNC1=N[C@@H]2C[C@H](O)[C@@H]([C@@](C)(O)C(F)(F)F)O[C@@H]2S1 [Example 29, (3aR,5S,6S,7aR)-2-(methylamino)-5-((R)-1,1,1-trifluoro-2-hydroxypropan-2-yl)-5,6,7,7a-tetrahydro-3aH-pyrano[3,2-d]thiazol-6-ol]
21	7.89	–	O[C@H]1[C@H](F)[C@H]2N=C(N3CCC3)S[C@H]2O[C@@H]1[C@@H](O)C(F)(F)F [Example 32, (3aR,5S,6R,7R,7aR)-2-(azetidin-1-yl)-7-fluoro-5-((R)-2,2,2-trifluoro-1-hydroxyethyl)-5,6,7,7a-tetrahydro-3aH-pyrano[3,2-d]thiazol-6-ol]
1.9	–	–	CNC1=N[C@@H]2[C@H](F)[C@H](O)[C@@H]([C@H](C)O)O[C@@H]2S1 [Example 34, (3aR,5R,6R,7S,7aR)-7-fluoro-5-((S)-1-hydroxyethyl)-2-(methylamino)-5,6,7,7a-tetrahydro-3aH-pyrano[3,2-d]thiazol-6-ol]
2.1	6.58	–	CCNC1=N[C@@H]2[C@H](F)[C@H](O)[C@@H]([C@@H](C)O)O[C@@H]2S1 [Example 37, (3aR,5R,6R,7S,7aR)-2-(ethylamino)-7-fluoro-5-((R)-1-hydroxyethyl)-5,6,7,7a-tetrahydro-3aH-pyrano[3,2-d]thiazol-6-ol]
3.7	9.15	8.04	CNC1=N[C@@H]2[C@H](F)[C@H](O)[C@@H]([C@@H](O)C(F)(F)F)O[C@@H]2S1 [Example 38, (3aR,5S,6R,7S,7aR)-7-fluoro-2-(methylamino)-5-((R)-2,2,2-trifluoro-1-hydroxyethyl)-5,6,7,7a-tetrahydro-3aH-pyrano[3,2-d]thiazol-6-ol]
–	7.30	–	CC[C@H]1O[C@@H]2SC(NC)=N[C@@H]2[C@H](F)[C@@H]1O [Example 42, (3aR,5R,6R,7S,7aR)-5-ethyl-7-fluoro-2-(methylamino)-5,6,7,7a-tetrahydro-3aH-pyrano[3,2-d]thiazol-6-ol]
2.4	6.41	–	CNC1=N[C@@H]2[C@H](F)[C@H](O)[C@@H](C(C)(C)O)O[C@@H]2S1 [Example 43, (3aR,5S,6R,7S,7aR)-7-fluoro-5-(2-hydroxypropan-2-yl)-2-(methylamino)-5,6,7,7a-tetrahydro-3aH-pyrano[3,2-d]thiazol-6-ol]
